Activity calls are given as the source filed them.
Tests used:
[1] = molecular target: T1, Rac GTPase-activating protein 1 (Homo sapiens, UniProt Q9H0H5); assay: MgcRacGAP GTPase-activating activity inhibitors, confirmation, biochemical, ADP Hunter fluorescence, primary and confirmatory (AID 624330); format: functional
T1 sequence (Q9H0H5 whole entry): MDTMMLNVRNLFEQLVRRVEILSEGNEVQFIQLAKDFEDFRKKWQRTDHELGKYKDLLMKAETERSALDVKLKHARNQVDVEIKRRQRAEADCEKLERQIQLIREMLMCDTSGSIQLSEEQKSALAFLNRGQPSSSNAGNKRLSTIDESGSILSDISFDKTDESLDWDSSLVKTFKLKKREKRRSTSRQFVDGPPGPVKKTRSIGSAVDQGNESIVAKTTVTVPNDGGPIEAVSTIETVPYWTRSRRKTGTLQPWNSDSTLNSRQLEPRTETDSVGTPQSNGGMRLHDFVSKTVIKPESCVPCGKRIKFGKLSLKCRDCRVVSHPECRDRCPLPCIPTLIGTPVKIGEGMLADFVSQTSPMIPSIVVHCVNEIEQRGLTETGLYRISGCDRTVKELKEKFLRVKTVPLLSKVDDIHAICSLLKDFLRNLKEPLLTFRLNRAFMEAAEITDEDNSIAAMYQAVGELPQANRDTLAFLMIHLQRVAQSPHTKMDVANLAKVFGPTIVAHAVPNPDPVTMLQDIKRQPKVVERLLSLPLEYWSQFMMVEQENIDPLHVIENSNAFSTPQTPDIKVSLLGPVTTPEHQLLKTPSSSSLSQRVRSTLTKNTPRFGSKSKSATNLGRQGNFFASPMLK

Protein skinhead-1 = molecular target: T2, Protein skinhead-1 (Caenorhabditis elegans, UniProt P34707); format: functional
T2 sequence (P34707 whole entry): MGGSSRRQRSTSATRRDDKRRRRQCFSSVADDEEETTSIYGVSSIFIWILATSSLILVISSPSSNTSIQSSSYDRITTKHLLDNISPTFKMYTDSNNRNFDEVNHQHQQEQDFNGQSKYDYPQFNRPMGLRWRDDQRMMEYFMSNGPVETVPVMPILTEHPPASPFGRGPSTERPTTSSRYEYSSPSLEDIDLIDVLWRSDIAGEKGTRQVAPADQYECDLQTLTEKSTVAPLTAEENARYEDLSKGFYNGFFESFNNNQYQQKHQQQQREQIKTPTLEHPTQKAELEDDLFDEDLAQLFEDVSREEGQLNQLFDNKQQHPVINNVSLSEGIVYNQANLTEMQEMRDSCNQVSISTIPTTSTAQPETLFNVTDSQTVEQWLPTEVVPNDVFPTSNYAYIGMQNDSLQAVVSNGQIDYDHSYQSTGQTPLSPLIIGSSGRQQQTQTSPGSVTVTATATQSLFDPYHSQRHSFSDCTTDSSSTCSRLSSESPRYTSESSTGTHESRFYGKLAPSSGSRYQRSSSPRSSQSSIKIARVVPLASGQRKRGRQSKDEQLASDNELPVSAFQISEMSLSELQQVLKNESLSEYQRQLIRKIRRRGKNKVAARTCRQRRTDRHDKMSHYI

[2] = molecular target: T3, Replicative DNA helicase DnaB (Mycobacterium tuberculosis, UniProt P9WMR3); assay: DnaB intein splicing inhibitors, dose response, biochemical, cell-free fluorescence (AID 449749); format: functional
T3 sequence (P9WMR3 whole entry): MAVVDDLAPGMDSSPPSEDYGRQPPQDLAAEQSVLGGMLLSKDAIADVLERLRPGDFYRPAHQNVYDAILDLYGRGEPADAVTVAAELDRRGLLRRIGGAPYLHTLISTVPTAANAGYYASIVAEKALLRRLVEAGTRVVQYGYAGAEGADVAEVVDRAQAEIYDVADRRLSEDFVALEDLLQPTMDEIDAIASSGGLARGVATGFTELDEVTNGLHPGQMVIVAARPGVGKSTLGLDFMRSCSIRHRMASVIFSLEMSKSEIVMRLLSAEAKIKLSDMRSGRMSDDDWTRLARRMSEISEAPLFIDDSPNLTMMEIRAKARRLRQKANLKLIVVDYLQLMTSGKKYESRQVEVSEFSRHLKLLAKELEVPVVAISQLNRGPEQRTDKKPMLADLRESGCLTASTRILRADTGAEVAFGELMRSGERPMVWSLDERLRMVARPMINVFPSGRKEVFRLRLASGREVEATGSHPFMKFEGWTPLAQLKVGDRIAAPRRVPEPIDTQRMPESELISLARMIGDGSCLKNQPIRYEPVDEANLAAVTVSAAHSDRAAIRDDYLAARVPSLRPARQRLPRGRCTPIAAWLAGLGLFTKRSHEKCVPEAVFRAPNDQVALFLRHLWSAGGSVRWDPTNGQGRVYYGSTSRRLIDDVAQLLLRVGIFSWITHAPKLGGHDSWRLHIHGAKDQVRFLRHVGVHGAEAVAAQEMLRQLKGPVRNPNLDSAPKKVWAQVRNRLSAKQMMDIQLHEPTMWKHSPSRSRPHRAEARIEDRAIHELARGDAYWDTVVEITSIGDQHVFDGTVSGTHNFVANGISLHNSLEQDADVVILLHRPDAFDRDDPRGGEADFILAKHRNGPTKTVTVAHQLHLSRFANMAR

Protein RecA = molecular target: T4, Protein RecA (Mycobacterium tuberculosis, UniProt P9WHJ3); assay: Fluorescence Cell-Free Homogeneous Dose Retest to Identify Inhibitors of RecA-Intein Splicing Activity. [Related pubchem assays (depositor defined):AID2097, AID2223, AID489010, AID492950]; format: functional
T4 sequence (P9WHJ3 whole entry): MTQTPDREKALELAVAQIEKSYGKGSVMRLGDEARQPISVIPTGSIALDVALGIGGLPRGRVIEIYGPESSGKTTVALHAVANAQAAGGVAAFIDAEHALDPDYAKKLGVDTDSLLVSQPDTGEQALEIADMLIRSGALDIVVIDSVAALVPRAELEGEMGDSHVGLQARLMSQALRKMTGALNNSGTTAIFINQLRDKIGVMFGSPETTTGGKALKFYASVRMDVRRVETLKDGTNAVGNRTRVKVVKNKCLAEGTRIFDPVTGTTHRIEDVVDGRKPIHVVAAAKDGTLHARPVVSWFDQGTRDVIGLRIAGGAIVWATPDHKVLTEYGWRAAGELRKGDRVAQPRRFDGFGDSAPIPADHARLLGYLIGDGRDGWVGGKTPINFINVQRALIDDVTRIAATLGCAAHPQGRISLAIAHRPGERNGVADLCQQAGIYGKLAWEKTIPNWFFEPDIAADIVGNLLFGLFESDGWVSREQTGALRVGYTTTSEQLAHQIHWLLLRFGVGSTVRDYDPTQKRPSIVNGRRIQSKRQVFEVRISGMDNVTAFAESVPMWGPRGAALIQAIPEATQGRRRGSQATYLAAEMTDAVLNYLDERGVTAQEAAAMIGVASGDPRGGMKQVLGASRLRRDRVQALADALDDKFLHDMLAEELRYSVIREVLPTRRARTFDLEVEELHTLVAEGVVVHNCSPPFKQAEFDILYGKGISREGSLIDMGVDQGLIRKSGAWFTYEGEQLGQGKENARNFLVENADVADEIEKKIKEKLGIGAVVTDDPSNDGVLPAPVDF

[3] = inhibitors of firefly luciferase expression or activity, dose response, H4 neuroglioma cells, luminescence (AID 1990); format: functional, cell-based
[4] = Luminescence Cell-Based Dose Response HTS to Identify Inhibitors of 5'UTR Stem-Loop Driven Prion Protein mRNA Translation in H4 Neuroglioblastoma Cells. [Related pubchem assays: 1827 (Project Summary), 1813 (Primary HTS)]; format: functional
[5] = inhibitors of SNCA 5'UTR-driven reporter translation, confirmation, H4 neuroglioma cells, luminescence (AID 1988); format: functional, cell-based
Cytochrome P450 2C19 = Cytochrome P450 2C19 (Homo sapiens, UniProt P33261); assay: Cytochrome panel assay with activity outcomes. Panel member name: p450-cyp2c19 Compounds with AC50 equal or less than 10 uM are considered active; format: functional; settings: read-out: AC50
[6] = molecular target: T5, High affinity choline transporter 1 (Homo sapiens, UniProt Q9GZV3); assay: CHT inhibitors, dose response, cell-based, 5-point CRC, membrane potential dye (AID 504840); format: functional
T5 sequence (Q9GZV3 whole entry): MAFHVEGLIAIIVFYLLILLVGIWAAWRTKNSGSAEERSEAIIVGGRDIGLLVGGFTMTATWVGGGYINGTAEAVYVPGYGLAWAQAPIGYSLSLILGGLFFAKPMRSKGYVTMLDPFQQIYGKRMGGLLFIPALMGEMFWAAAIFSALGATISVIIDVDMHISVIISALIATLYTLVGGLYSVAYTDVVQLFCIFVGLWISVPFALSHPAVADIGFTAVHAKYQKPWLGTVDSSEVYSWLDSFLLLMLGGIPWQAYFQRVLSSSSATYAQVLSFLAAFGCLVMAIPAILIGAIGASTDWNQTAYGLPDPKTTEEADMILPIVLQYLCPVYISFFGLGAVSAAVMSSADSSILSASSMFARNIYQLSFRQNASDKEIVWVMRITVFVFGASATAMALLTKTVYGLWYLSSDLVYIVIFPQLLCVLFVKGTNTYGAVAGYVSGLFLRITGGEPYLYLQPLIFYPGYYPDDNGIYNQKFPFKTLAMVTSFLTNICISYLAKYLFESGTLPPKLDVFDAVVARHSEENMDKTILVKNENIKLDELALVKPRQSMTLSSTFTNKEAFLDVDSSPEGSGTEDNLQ

Cytochrome P450 3A4 = Cytochrome P450 3A4 (Homo sapiens, UniProt P08684);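 also: CYP3A4 tested as one member of a cytochrome P450 panel screen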
[7] = Luminescence Cell-Based Dose Retest to Confirm Inhibitors of Cancer Stem Cells. [Related pubchem assays (depositor defined):AID2717, AID2721]; format: functional; settings: Homo sapiens

Cytochrome P450 2C19, sequence (P33261 whole entry): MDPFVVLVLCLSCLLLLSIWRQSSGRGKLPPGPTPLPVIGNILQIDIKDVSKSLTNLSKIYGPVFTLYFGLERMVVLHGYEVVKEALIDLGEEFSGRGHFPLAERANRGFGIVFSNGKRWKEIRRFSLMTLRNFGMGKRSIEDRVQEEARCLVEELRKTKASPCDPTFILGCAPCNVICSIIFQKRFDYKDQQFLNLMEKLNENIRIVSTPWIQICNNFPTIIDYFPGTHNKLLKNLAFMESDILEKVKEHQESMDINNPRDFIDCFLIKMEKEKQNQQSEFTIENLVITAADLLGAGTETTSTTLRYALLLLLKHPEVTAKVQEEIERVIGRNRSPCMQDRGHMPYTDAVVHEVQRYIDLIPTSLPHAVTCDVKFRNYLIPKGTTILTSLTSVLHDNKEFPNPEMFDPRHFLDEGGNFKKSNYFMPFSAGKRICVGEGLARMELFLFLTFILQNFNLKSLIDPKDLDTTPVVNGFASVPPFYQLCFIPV
Cytochrome P450 3A4, sequence (P08684 whole entry): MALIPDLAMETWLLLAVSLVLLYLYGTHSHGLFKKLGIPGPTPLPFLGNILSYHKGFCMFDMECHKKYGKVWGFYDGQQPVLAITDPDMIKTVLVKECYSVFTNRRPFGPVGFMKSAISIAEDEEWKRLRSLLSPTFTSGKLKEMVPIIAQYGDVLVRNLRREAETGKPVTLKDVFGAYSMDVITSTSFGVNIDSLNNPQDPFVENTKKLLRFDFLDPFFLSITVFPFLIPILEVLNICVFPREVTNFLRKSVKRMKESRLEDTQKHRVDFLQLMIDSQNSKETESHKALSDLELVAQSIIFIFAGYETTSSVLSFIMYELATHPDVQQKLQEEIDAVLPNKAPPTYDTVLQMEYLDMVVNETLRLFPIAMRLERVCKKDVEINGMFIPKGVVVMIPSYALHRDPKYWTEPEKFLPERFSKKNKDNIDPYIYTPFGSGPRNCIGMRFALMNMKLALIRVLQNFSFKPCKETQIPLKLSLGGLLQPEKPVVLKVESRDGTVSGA

Q: With `Nc1cc2c(cc1N)-c1ccccc1C2` as the compound, how does the IC50 [1] read?
A: 23 µM (active)

Q: Which IC50 (Protein skinhead-1) does the source give for `CCCCNC(=O)OCC(CC)NC(=O)OCC(C)C` (centres undefined) here?
A: > 100 µM (inactive)

Q: Which AC50 [2] does the source give for `CC(CCn1cccn1)NC(=O)CCc1nnc(CCc2ccccc2)o1` (centres undefined) here?
A: > 380 µM (inactive)

Q: What about the EC50 (Protein RecA) of the same compound?
A: > 380 µM (inactive)

Q: With `Nc1ccc(-n2nc3ccccc3n2)cc1` as the compound, how does the EC50 [3] read?
A: 31.8 µM (active)

Q: What about the EC50 [4] of the same compound?
A: 67 µM (active)

Q: And the EC50 [5]?
A: 5.68 µM (active)

Q: With `COc1ccccc1N1CCN(/N=C/c2ccc(O)cc2O)CC1` as the compound, how does the IC50 [1] read?
A: 48 µM (active)

Q: For `CCCCCn1c(CN2CCCCC2C)nc2c1c(=O)n(C)c(=O)n2C` (centres undefined), which AC50 (Cytochrome P450 2C19) is on record?
A: 20 µM (inconclusive)

Q: What about the IC50 [6] of the same compound?
A: 13.2 µM (active)

Q: What about the AC50 (Cytochrome P450 3A4) of the same compound?
A: 5.01 µM (inconclusive)

Q: With `Cc1cc(C)c(C)c(S(=O)(=O)Nc2ccc(O)cc2)c1C` as the compound, how does the IC50 [1] read?
A: 45.7 µM (active)

Q: Which IC50 [6] does the source give for `CC1CCN(CCNC(=O)C2CCCN(c3ncnc4c3nc3n4CCCCC3)C2)CC1` (centres undefined) here?
A: 13.2 µM (active)

Q: For `Cc1c(Cl)cccc1N=C([S-])/C(=C(\O)c1ccc(Cl)s1)[n+]1ccccc1`, which AC50 [2] is on record?
A: 19.8 µM (active)

Q: And the EC50 (Protein RecA)?
A: 12.9 µM (active)

Q: For `COc1cc(/C=N/NC(=O)c2cn(-c3cccc(C)n3)cn2)ccc1O`, which IC50 [1] is on record?
A: 36.1 µM (active)

Q: Which EC50 [3] does the source give for `CCn1ncc2c(OCc3ccc(C#N)cc3)cc(C)nc21` here?
A: 21.5 µM (active)

Q: And the EC50 [4]?
A: 24.9 µM (active)

Q: What about the EC50 [5] of the same compound?
A: 61.8 µM (active)

Q: Which IC50 [6] does the source give for `CNc1oc(Cc2cccc3ccccc23)nc1C#N` here?
A: 12.6 µM (active)

Q: Which IC50 [1] does the source give for `O=C(Cc1ccc(Cl)cc1)N/N=C/c1ccc(O)c(O)c1` here?
A: 19.7 µM (active)

Q: Which IC50 [1] does the source give for `Cc1ccc(S(=O)(=O)N2CCCCC2)cc1NC(=O)CNCc1ccco1` here?
A: 198 µM (active)

Q: With `CCCc1cc(-c2nc(-c3ccc(Cl)cc3)cs2)ccn1` as the compound, how does the AC50 [7] read?
A: 8.69 µM (active)

Q: What about the IC50 (Protein skinhead-1) of the same compound?
A: 21 µM (active)

Source: ChEMBL document CHEMBL1201862, “PubChem BioAssay data set” (2004)
